Experimental data as given in US20250353842A1, “BICYCLIC AMINE CDK12 INHIBITORS” (Incyte Corporation, priority 2022, published 2025).

Each compound was assayed against CDK12 complexed with Cyclin K (Homo sapiens (Human), UniProt Q9NYV4) (assay: CDK enzymatic assay (HTRF, LANCE Ultra kinase assay)). Settings: 60 minutes pre-incubation, 1 mM ATP.
Assay type: biochemical
How it was run: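 GST-tagged human CDK12 co-expressed with full-length Cyclin K in baculovirus, pre-incubated 60 min with compound, then 1 mM ATP and 50 nM ULight-4E-BP1 peptide (final) in pH 7.5 HEPES buffer for 60-90 min at room temperature. EDTA/Eu-anti-phospho-4E-BP1 stop; 665/620 nm HTRF ratio normalized to DMSO and no-enzyme controls, IC50 from 3- or 4-parameter fit.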

Sequence of CDK12 complexed with Cyclin K (Q9NYV4 whole entry): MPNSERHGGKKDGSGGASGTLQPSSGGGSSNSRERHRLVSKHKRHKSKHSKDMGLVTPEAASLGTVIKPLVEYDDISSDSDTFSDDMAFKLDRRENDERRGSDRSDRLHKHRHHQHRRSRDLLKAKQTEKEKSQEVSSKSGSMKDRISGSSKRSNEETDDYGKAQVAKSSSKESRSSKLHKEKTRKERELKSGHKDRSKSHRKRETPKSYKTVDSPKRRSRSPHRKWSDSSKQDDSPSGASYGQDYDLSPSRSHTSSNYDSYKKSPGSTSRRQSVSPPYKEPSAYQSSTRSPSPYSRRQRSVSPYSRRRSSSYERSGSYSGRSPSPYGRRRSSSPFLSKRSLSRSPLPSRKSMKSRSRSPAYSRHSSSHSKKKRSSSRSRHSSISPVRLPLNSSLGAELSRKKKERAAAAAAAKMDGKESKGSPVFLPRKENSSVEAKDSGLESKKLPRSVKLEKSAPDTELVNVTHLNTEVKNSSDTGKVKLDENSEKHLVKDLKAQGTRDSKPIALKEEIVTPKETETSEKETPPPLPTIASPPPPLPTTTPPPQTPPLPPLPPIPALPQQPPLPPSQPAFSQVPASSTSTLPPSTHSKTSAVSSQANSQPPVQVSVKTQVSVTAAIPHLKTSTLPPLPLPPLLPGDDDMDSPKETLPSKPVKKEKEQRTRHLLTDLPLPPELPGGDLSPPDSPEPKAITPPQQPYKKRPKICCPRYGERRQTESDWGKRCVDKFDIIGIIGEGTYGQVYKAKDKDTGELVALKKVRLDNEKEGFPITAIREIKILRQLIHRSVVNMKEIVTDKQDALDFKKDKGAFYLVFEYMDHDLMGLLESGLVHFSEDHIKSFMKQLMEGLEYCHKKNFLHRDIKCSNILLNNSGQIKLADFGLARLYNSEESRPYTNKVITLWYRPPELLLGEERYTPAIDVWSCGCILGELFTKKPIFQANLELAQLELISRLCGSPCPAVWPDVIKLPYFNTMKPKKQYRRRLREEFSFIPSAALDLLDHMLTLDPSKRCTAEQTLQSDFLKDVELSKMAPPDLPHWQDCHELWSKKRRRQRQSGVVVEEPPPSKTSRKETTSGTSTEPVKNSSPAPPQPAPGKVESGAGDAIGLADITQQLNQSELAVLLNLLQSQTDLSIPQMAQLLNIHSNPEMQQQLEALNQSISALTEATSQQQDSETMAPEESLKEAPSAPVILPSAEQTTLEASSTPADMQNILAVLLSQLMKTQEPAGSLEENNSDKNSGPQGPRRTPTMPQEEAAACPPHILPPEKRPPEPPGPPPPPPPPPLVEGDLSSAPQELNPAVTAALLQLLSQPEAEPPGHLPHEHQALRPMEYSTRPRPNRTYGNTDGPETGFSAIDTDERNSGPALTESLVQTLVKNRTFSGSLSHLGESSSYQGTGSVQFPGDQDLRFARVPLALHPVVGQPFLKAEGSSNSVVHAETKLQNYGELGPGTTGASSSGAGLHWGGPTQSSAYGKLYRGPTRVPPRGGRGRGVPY
Sequence of CDK12 complexed with Cyclin K (O75909 whole entry partner): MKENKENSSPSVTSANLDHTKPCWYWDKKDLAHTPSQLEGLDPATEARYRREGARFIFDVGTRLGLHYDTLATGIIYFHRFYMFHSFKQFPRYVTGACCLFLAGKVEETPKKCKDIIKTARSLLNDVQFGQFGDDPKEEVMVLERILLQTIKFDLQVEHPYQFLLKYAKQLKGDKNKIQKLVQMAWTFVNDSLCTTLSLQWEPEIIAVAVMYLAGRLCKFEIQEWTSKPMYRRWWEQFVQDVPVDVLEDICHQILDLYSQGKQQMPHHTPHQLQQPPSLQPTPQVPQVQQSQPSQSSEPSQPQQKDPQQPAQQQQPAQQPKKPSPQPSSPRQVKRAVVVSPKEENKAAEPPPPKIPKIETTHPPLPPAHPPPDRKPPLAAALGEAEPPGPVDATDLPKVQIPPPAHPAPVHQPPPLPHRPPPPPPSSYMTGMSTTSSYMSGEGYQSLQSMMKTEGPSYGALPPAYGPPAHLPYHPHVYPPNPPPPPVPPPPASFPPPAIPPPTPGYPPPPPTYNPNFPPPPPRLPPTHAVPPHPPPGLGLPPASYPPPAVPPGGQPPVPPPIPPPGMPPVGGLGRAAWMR

How did the IC50 turn out when `N#Cc1cccc2ncn([C@H]3CCC[C@@H](Nc4ncc(C(F)(F)F)c(-c5cnn(CC(F)F)c5)n4)C3)c12` [Example 87, 1-((1S,3R)-3-((4-(1-(2,2-Difluoroethyl)-1H-pyrazol-4-yl)-5-(trifluoromethyl)pyrimidin-2-yl)amino)cyclohexyl)-1H-benzo[d]imidazole-7-carbonitrile] was run?
The IC50 was < 50 nM.

How did the IC50 turn out when `N#Cc1cc2ncn([C@H]3CCC[C@@H](Nc4ncc(C#N)c(-c5cnn(CC(F)F)c5)n4)C3)c2cn1` [Example 88, 3-((1S,3R)-3-((5-Cyano-4-(1-(2,2-difluoroethyl)-1H-pyrazol-4-yl)pyrimidin-2-yl)amino)cyclohexyl)-3H-imidazo[4,5-c]pyridine-6-carbonitrile] was run?
Its IC50 is < 50 nM.

Which IC50 does the source give for `Cc1c(-c2nc(N[C@@H]3CCC[C@H](n4cnc5cc(C#N)cnc54)C3)ncc2C#N)cnn1C` [Example 89, 3-((1S,3R)-3-((5-Cyano-4-(1,5-dimethyl-1H-pyrazol-4-yl)pyrimidin-2-yl)amino)cyclohexyl)-3H-imidazo[4,5-b]pyridine-6-carbonitrile] here?
The IC50 was < 50 nM.
